Data set [1] can be described thus: Solubility of ocaperidone in water and buffers of gastro-intestinal fluids. The data set is classed as physicochemical. As to the method:
Ocaperidone is virtually insoluble in water. Its water solubility is less or equal to 0.007 mg per mL. […] In order to be absorbed uniformly from the gastrointestinal tract after oral administration, the drug must be dissolved and must remain in the solution for absorption. The pH of the gastrointestinal tract varies from pH 1 to 5 in the stomach and pH 4 to 7.5 in the intestine. There is also known significant variation of the intestinal pH on an intra- and inter-individual basis in the general population. This variation is mostly attributed to factors such as gastro-intestinal motility, concomitantly administered food or drug and food habits etc. It is an object of the present invention to provide a therapeutic system for ocaperidone from which, despite its very low solubility in water (0.007 mg/mL), is dispensed/released in the surrounding intestinal environment in a dissolved state. This invention eliminates the effect of surrounding pH on the solubility of ocaperidone. In addition, this improvement in solubility makes this therapeutic system to function appropriately from the bioavailability point of view and overcomes the inter- and intra-individual variability.

Data set [2] in a line: Bioavailability studies with conventional oral dosage forms in animals. The data set is classed as in vivo. From the text: (§1) One of the objects of the invention is to overcome these drawbacks observed with conventional dosage forms.
Data set [3] can be described thus: Bioavailability studies with conventional oral dosage forms in humans. The data set is classed as in vivo. Particulars: within a patient and between patients.
Text: as §1

Converted amounts (≈) assume the structure as drawn. Bounds are passed on as bounds.

For the compound `Cc1nc2c(C)cccn2c(=O)c1CCN1CCC(c2noc3cc(F)ccc23)CC1` [Ocaperidone], the “solubility in the buffers of gastro-intestinal fluids” value in data set [1] (buffers of pH 3.0 and above) is “in the same range as that of water”. In data set [1] (water), the concentration in solution (solubility) was 7 µg/mL (≈ 16.6 µM). Also, the water solubility in data set [1] (water) is at most 0.007 mg per mL. For the same compound, the variability of bioavailability result in data set [2] and in data set [3] was “significant high variability” each time.

A word on the solubility: it is the dissolved amount per volume that the medium holds. The low end stands for little dissolved substance, the high end for much dissolved substance.

Values taken from US20080103159A1, “Composition Comprising Ocaperidone” (priority 2005, published 2008).
